Measurements taken from EP4631931A1, “HDAC INHIBITOR AND USE THEREOF” (Wigen Biomedicine Technology (Shanghai) Co., Ltd., priority 2022, dated 2024).

Assays:
HeLa cells = experiment: Intracellular acetyl lysine / H3K 27 acetyl lysine level by ELISA; assay type: cell-based; details: 24 h of treatment
Procedure: HeLa cells were seeded into a 96-well plate at 20000 cells/well. After overnight adherence culture, the serially diluted compound was added. After 24 h of treatment, intracellular levels of acetyl lysine and H3K 27 acetyl lysine were quantified by ELISA. Table 9. Effect of compound of the present disclosure on levels of acetyl lysine and H3K 27 acetyl lysine

HDAC10 = target: T1, HDAC10 (Homo sapiens, UniProt Q969S8); experiment: HDAC enzyme inhibition, fluorometric assay; assay type: biochemical; details: read-out: Inhibitory activity against HDAC10 (IC50)
T1 sequence (Q969S8 1-669): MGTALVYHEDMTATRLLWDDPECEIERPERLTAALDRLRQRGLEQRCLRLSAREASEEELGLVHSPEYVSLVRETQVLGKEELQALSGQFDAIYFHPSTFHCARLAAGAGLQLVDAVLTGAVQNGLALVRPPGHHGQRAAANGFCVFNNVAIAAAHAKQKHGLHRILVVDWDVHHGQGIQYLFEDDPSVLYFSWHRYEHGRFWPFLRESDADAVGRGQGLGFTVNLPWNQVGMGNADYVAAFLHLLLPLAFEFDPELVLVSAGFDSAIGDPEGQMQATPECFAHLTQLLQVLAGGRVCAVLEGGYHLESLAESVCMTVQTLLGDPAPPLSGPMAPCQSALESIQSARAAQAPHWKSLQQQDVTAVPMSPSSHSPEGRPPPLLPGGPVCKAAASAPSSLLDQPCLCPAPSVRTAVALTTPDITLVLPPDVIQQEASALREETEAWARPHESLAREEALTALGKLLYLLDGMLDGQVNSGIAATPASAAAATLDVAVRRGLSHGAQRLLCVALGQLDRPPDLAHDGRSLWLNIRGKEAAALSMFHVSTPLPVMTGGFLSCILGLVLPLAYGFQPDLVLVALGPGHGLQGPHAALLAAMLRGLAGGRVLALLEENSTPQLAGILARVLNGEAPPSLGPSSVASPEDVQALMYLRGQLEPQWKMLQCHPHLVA
Procedure: Serially diluted DMSO sample solutions were added to the reaction wells, enzymes were added to a 384-well plate, and a reaction buffer was added to the control wells. The plate was incubated at room temperature for 15 min. After the fluorogenic substrate solution was added, the reaction was started. Fluorescence intensity readings (excitation: 355 nm, emission: 460 nm) were recorded every minute for 60 min using a Paradigm detector, and the slope values were calculated. Inhibition rate (%) = (maximum value - sample value)/(maximum value - minimum value) × 100%. The IC50 values were obtained by fitting a curve using the equation: Y = Bottom + (Top - Bottom)/(1 + (IC50/X)^HillSlope), where Y represents the inhibition rate and X represents the concentration of the compound. Table 10. Inhibitory activity of compound of the present disclosure against HDAC1, HDAC2, HDAC3, and HDAC10 (IC50, nM)

[1] = Pharmacokinetic experiment in rats; assay type: in vivo; details: female, rat, plasma
Procedure: Healthy female rats aged 6 to 8 weeks were intravenously administered and orally administered at doses of 1 mg/kg and 10 mg/kg. The rats were fasted overnight before the administration.
On the day of the experiment, animals in the intravenous group were given the corresponding compound by single injection via the tail vein at an administration volume of 10 mL/kg; and animals in the oral group were given the corresponding compound by single intragastric injection at an administration volume of 10 mL/kg. The sample collection time points were 0.083 h, 0.167 h, 0.5 h, 1 h, 2 h, 4 h, 8 h, and 24 h. About 200 µL of whole blood was collected through the neck at each time point and used to prepare plasma for concentration determination by high-performance liquid chromatography-tandem mass spectrometry (LC-MS/MS). The plasma concentrations were processed using a non-compartmental model of Winnolin pharmacokinetic software, and the pharmacokinetic parameters were calculated using a linear-log trapezoidal method. Table 14. Results of in vivo pharmacokinetic evaluation of compounds

[2] = Metabolite identification in liver microsomes and hepatocytes from various species; assay type: in vitro ADME; details: 10 µM compound, 1.0 mg/mL liver microsomes, 37 °C, 120 min; mouse, rat, dog, monkey, human
Procedure: After the 10 µM compound was separately incubated with 1.0 mg/mL liver microsomes or hepatocytes (from 5 species: mouse, rat, dog, monkey, and human), and an NADPH regeneration system at 37 °C for 120 min, a stop solution was added to terminate the reaction, and the incubated samples were removed from the water bath. After the reaction was terminated, the samples were vortexed and then centrifuged at 4 °C and 3260× g for 15 min. After centrifugation, all the supernatants were transferred to a 96-well plate for direct use in LC-MS analysis, or subjected to dilution or concentration and reconstitution prior to injection. An LC-UV-HRMSn (n = 1-2) analytical method was established on LC-UV-HRMSn, and data acquisition was performed using SCIEX OS software. The parent drug and the metabolites could be analyzed by mass spectrometry with different scanning modes (MS/MS or IDA) and ultraviolet full-wavelength scanning (λ = 190-500 nm). By comparing the ultraviolet and mass spectra of the post-incubation samples with those of blank samples from the same species, potential metabolites were identified. The possible structures of the metabolites were inferred by comparative analysis of the collision-induced dissociation (CID) fragments of the test compounds and their metabolites. The metabolites and their relative abundances were summarized in a table for interspecies comparison.

[3] = Injection (1 mg/kg), intravenous

IC50 (HDAC10) [nM]	AUC(0-t) [1, 3] [ng·h/mL]	clearance [1, 3] [mL/min/kg]	half-life [1, 3] [h]	Vd ([1]; Injection (1 mg/kg), intravenous, read-out: Vdss) [L/kg]	AUC(0-t) ([1]; Oral administration (10 mg/kg)) [ng·h/mL]	Cmax ([1]; Oral administration (10 mg/kg)) [ng/mL]	Tmax ([1]; Oral administration (10 mg/kg)) [min]	bioavailability ([1]; Oral administration (10 mg/kg)) [%]	half-life ([1]; Oral administration (10 mg/kg)) [h]	SMILES	Acetyl lysine Maximum (%) (HeLa cells)	Acetyl lysine Minimum effective concentration (HeLa cells) [nM]	H3K 27 Acetyl lysine Maximum (%) (HeLa cells)	H3K 27 Acetyl lysine Minimum effective concentration (HeLa cells) [nM]	metabolic pathways and stability in liver microsomes from all the species [2]
318	–	–	–	–	–	–	–	–	–	Nc1cc(F)ccc1NC(=O)c1ccc(CNC(=O)/C=C/c2cccnc2)cc1 [Chidamide, reference compound]	420	80	380	80	–
127	1260	12.9	6.54	2.42	5150	3420	9.6	40.1	4.01	[2H]c1cc(C(=O)Nc2ccc(F)cc2N)ccc1CNC(=O)/C=C/c1cccnc1 [Compound 5, (E)-N-(2-amino-4-fluorophenyl)-4-((3-(pyridin-3-yl)acrylamido)methyl)-3-d benzamide]	350	16	420	80	simple metabolic pathways and good stability in liver microsomes from all the species
